Seven compounds from ChEMBL document CHEMBL1201862, “PubChem BioAssay data set” (2004) can be followed below.

The source made the active and inactive calls. A value given as a limit tells only on which side of the number the result lay.

The nature of assay [1]: microbe, parasite or virus in culture. Format: functional. As to conditions: Mycobacterium tuberculosis.
Assay [2] deals with Vero. Put plainly: Vero cell cytotoxicity, cytotoxicity control for flavivirus capping enzyme inhibitors (AID 588742). Type of assay: functional. Particulars: Chlorocebus sabaeus.
In assay [3] the test system is Vero. In words: cells. Format: functional, cell-based. Particulars: Chlorocebus sabaeus.
Assay [4] relates to Vero. In words: cells. Format: functional. As to conditions: Chlorocebus sabaeus.
Another assay concerns the target T1, Protein RecA (Mycobacterium tuberculosis, UniProt P9WHJ3).
T1 sequence (P9WHJ3 whole entry): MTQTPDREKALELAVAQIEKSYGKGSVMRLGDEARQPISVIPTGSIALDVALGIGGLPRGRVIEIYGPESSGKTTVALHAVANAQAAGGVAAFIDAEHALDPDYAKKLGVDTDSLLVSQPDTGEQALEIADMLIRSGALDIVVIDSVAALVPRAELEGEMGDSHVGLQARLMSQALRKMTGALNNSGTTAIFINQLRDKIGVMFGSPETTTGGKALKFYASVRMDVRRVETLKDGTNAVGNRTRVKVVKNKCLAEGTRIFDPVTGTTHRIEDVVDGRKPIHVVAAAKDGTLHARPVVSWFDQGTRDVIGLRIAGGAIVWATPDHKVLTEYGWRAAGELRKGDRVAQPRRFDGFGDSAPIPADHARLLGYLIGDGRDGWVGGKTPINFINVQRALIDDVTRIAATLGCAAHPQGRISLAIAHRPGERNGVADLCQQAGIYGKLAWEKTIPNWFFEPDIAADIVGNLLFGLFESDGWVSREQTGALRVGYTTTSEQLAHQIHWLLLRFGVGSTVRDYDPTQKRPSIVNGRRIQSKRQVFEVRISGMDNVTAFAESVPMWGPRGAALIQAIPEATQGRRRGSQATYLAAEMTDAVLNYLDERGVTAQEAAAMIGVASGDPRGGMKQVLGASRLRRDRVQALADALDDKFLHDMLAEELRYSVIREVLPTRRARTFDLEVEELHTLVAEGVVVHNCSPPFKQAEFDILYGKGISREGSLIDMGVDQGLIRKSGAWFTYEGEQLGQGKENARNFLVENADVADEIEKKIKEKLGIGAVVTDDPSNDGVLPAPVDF
In words: Fluorescence Cell-Free Homogeneous Dose Retest to Identify Inhibitors of RecA-Intein Splicing Activity. [Related pubchem assays (depositor defined):AID2097, AID2223, AID489010, AID492950]. Type of assay: functional.

In assay [5] the target is T2, Replicative DNA helicase DnaB (Mycobacterium tuberculosis, UniProt P9WMR3).
T2 sequence (P9WMR3 whole entry): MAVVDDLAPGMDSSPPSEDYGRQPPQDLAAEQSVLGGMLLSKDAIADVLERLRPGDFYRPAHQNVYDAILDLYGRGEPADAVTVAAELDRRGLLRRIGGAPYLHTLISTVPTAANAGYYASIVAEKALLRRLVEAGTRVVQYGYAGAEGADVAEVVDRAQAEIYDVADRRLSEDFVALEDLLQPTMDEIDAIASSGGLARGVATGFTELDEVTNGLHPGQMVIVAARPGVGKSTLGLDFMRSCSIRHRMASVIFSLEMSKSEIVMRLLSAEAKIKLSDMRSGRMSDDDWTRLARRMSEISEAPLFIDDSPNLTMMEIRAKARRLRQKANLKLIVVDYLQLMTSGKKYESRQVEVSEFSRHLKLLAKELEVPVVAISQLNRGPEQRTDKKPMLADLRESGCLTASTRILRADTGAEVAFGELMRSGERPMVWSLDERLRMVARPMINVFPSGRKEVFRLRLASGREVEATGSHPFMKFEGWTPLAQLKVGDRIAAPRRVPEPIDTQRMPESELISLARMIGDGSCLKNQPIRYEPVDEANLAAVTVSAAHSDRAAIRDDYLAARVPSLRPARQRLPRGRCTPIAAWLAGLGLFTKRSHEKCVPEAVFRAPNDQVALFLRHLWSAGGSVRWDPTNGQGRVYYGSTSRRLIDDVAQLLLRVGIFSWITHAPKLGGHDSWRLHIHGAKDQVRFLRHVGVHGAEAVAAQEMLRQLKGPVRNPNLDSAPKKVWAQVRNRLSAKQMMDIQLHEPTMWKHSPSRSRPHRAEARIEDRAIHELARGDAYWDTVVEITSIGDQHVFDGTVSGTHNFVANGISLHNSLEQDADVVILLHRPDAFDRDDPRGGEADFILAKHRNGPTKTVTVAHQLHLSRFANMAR
Put plainly: DnaB intein splicing inhibitors, dose response, biochemical, cell-free fluorescence (AID 449749). Type of assay: functional.

Another assay concerns HeLa. In words: HeLa cell cytotoxicity, dose response, cytotoxicity control for MITF activator project, CellTiter-Glo luminescence, cherry-pick samples (AID 540259). As to conditions: Homo sapiens. Type of assay: functional, cell-based. Background: In ATP-based viability assays light output follows the ATP content of the culture.
The target of assay [6] is T3, Short transient receptor potential channel 4 (Mus musculus, UniProt Q9QUQ5).
T3 sequence (Q9QUQ5 whole entry): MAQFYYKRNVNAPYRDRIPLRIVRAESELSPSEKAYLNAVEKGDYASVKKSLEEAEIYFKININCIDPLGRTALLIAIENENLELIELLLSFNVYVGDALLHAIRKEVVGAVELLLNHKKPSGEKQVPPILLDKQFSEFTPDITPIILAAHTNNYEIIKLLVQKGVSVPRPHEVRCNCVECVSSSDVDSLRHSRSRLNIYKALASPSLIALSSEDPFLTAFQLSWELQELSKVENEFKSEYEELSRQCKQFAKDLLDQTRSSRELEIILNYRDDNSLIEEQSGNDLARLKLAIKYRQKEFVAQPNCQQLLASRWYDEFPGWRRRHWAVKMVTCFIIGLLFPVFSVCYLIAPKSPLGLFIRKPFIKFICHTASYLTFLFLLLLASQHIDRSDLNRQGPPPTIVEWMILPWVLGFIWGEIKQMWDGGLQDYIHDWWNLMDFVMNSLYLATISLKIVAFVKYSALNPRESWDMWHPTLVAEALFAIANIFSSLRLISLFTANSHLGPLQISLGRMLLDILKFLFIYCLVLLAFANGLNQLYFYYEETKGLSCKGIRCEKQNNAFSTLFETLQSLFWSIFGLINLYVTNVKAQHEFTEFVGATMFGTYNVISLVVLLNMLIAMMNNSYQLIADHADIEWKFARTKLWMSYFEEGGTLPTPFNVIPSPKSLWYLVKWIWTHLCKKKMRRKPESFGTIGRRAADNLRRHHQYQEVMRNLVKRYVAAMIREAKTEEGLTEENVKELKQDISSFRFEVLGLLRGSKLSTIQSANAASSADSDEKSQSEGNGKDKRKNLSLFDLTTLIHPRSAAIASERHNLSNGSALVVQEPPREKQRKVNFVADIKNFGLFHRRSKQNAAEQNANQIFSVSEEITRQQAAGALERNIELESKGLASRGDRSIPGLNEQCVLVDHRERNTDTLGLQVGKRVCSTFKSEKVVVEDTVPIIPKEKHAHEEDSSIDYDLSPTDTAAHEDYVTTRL
Put plainly: mouse TRPC4 channel activators, dose response, cell-based, HEK293 TRPC4/mu-opioid, Fluo-4 calcium (AID 434937). Format: functional.

The target in another assay is Mu-type opioid receptor (Homo sapiens, UniProt P35372). In words: Counterscreen for agonists of heterodimerization of the mu 1 (OPRM1) and delta 1 (OPRD1) opioid receptors: Luminescence-based cell-based high throughput dose response assay to identify agonists of OPRM1 homodimerization. Format: functional.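 Further: U2OS cells expressing OPRM1 and beta-arrestin as split beta-galactosidase partners.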
Assay [7] concerns the target Delta-type opioid receptor (Homo sapiens, UniProt P41143). Put plainly: Counterscreen for agonists of heterodimerization of the mu 1 (OPRM1) and delta 1 (OPRD1) opioid receptors: Luminescence-based cell-based high throughput dose response assay to identify agonists of OPRD1 homodimerization. [Related pubchem assays (depositor defined):AID504326, AID504355, AID504692, AID504904, AID504905]. Type of assay: functional. (In general: The purpose of a counterscreen is to sort out artefacts and off-target activity.)

Assay [8] concerns the target 5-hydroxytryptamine receptor 5A (Homo sapiens, UniProt P47898). In words: Counterscreen for agonists of OPRM1-OPRD1 heterodimerization: luminescence-based cell-based high throughput dose response assay to identify agonists of 5-hydroxytryptamine (serotonin) 5A receptor (HTR5A). [Related pubchem assays (depositor defined):AID504326, AID504355, AID504692, AID504904, AID504905]. Type of assay: functional.

The subject of the next assay is H4. In words: Luminescence Cell-Based Dose Response HTS to Identify Activators of 5'UTR Stem-Loop Driven Prion Protein mRNA Translation in H4 Neuroglioblastoma Cells. [Related pubchem assays: 1829 (Project Summary), 1814 (Primary HTS)]. Format: functional. As to conditions: Homo sapiens.
Assay [9] is described as follows: Luminescence Cell-Based Dose Response HTS to Identify Activators of Luciferase Translation or Activity in H4 […] Cells. [Related pubchem assays: 1829 (Project Summary), 1814 (Primary HTS)]. Format: functional.

Mu-type opioid receptor, sequence (P35372 whole entry): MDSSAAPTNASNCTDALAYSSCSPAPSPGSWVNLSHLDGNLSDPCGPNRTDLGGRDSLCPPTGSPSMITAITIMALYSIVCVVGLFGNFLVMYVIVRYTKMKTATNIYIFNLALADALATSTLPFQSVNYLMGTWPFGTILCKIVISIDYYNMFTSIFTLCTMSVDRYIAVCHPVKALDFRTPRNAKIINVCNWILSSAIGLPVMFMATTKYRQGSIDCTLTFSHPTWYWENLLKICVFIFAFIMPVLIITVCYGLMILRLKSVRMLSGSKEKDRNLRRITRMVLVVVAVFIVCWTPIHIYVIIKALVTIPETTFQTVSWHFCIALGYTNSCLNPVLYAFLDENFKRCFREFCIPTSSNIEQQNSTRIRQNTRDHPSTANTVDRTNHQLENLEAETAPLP
5-hydroxytryptamine receptor 5A, sequence (P47898 whole entry): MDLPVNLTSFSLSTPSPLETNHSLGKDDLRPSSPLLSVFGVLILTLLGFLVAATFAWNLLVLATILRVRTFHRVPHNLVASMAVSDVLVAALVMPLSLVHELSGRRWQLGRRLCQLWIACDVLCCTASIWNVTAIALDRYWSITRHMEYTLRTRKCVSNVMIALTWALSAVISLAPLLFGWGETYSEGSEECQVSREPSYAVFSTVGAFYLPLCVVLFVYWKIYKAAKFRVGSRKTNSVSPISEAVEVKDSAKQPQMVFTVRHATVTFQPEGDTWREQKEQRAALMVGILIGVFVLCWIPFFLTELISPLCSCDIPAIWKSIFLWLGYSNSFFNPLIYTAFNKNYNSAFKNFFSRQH
Delta-type opioid receptor, sequence (P41143 whole entry): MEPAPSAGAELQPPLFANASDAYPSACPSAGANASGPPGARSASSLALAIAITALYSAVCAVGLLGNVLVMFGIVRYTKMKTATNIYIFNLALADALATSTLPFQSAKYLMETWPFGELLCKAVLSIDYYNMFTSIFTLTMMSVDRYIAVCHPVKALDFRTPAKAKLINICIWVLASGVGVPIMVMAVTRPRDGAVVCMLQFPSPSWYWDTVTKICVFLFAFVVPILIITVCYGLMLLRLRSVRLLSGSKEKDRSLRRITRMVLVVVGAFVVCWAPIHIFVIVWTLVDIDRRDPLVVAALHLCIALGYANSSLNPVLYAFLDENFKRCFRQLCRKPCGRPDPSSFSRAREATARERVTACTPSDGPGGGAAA

`Oc1cc(N=Nc2ccc(Cl)cc2)nc(O)n1`: the CC50 in assay [1] is 8.44 µM (active); in the assay on Vero [2], 14.8 µM (active); in the assay with Vero [4], > 25 µM (active). The half-inhibitory concentration (IC50) (commonly the concentration that gives 50% inhibition) in the assay with Vero [3] is 21.9 µM (active). The concentration giving a half-maximal response (EC50) (in general, the concentration that produces a half-maximal response) on Protein RecA is 1.2 µM (active). Moreover, in assay [5], the half-maximal activity concentration (AC50) (commonly the midpoint of the concentration-response curve, whichever way the signal moves) is 2.37 µM (active).

On to `COc1cc(OC)c2c(-c3cccc(/C=C/c4ccc(F)cc4)c3)cc(=O)oc2c1`, for which the half-maximal activity concentration (AC50) in the assay with HeLa was 165 µM (active).

On to `Cc1cc(C)cc(C(=O)N(CCc2ccccc2)C2=CC3CCC(C2)N3C)c1` (configuration not stated), for which the EC50 in assay [6] is 0.267 µM (active); at Mu-type opioid receptor it was 43.9 µM (inactive); in assay [7], > 92.5 µM (inactive); in [8], > 92.5 µM (inactive).

For the compound `O=S(=O)(Cc1cc(-c2ccccc2Cl)no1)c1ccccc1`, the half-maximal activity concentration (AC50) in the assay on HeLa is 51.8 µM (active).

On to `COc1cc(NC(=O)c2cccc(C)c2)ccc1NC(=O)c1cc2ccccc2o1`, for which the EC50 (on Mu-type opioid receptor; in assay [7]; in [8]) was > 92.4 µM (inactive) throughout.

With `CN(C)C(CNC(=O)C1CC(=O)N(Cc2ccccc2)C1)c1ccccc1` (configuration not stated), the EC50 was 1.33 µM (active) in assay [6], > 92.5 µM (inactive) on Mu-type opioid receptor, > 92.5 µM (inactive) in assay [7] and > 92.5 µM (inactive) in assay [8].

Turning to `Clc1cnc(N/N=C/c2cccs2)c(Cl)c1`, the EC50 was 0.136 µM (active) in the assay with H4 and 0.411 µM (active) in assay [9]. Also, the AC50 in the assay on HeLa was 62.4 µM (active).
